Source: US9205113B2, “Synthetic triterpenoids and methods for modulating stem/progenitor cell gene expression” (Trustees of Dartmouth College, priority 2012, dated 2015)

Columns and labels:
collagen type 2 = test: Western blot in bone marrow stem cell cultures: collagen type 2; format: cell-based; details: 100 nM for 7 days, human BMSC cultures, not detectable in control
Experimental: (§1) Bone Marrow-Derived Stem Cell Culture and Immunoblotting. Human bone marrow-derived stromal cells, which contain a population of responsive mesenchymal stem cells (ScienCell Research Laboratories), were grown in mesenchymal stem cell medium (ScienCell Research Laboratories). Cells were serum-starved 24 hours prior to all experimental conditions. Immunoblotting was performed using the following antibodies at concentrations (and using protocols) recommended by the respective manufacturers: SOX9 (sc-20095, Santa Cruz Biotechnology), collagen IIα1 (sc-7764 and sc-28887, Santa Cruz), aggrecan (ab3778 and ab36861, Abcam), BMP-2 (ab14933, Abcam), phospho-Smad5 (9516, Cell Signaling Technology), Smad5 (9517, Cell Signaling Technology), β-actin (A1978, SigmaeAldrich). HRP-conjugated IgG TRUEBLOT reagents (18-8814, eBioscience) were used at a dilution of 1:1000.
(§2) Further studies on mechanism were pursued in human bone marrow stem cell (BMSC) cultures. […] BMP-2 is known to induce chondrogenic lineage development of human mesenchymal stem cells in culture (Schmitt, et al. (2003) Differentiation 71:567-77).

newborn mouse calvaria = test: histologic analysis of calvarial organ cultures (H&E, toluidine blue): chondrogenesis; format: cell-based; details: 200 nM, 7 days; for induction of chondrogenesis in newborn mouse calvaria (histology): H&E or toluidine blue sections; for formation of proteoglycans such as aggrecan (metachromatic toluidine blue staining): calvarial sections
Experimental: (§3) Calvarial Organ Cultures. Details have been published previously (Garrett, et al. (2003) J. Clin. Invest. 111:1771-82). Calvaria were cultured in BGJ medium supplemented with 1 mg/mL of bovine serum albumin (Cohn fraction V), 100 U/ml each of penicillin/streptomycin, and 0.292 mg/mL of glutamine. On Day 1, the calvaria were treated with synthetic oleanane triterpenoids. On Day 4, the medium was replaced with fresh medium, again containing synthetic oleanane triterpenoids. On Day 7, calvaria were collected, either stored at −80° C. for further RNA analysis or fixed in 10% buffered formalin for 24 hours and transferred to 80% ethanol for histologic analysis.
(§4) Histologic Analysis of Calvaria. After fixation for hours, calvaria were decalcified in EDTA, embedded in paraffin and sectioned at 4 μm. Sections were stained either with modified hematoxylin and eosin (H&E) or with toluidine blue (1% in 70% ethanol for 20 minutes, followed by destaining in 70%, 90% and 100% ethanol for 15 seconds), placed in xylene twice, and then mounted. Procedures for immunofluorescence staining have been described (Medici, et al. (2010) Nat. Med. 74:537-45). Primary antibodies against collagen type II (AB746P, Millipore), were used at 1:100 dilution; ALEXFLUOR secondary antibodies (Invitrogen) at 1:200 dilution. For nuclear staining, To-PRO-3 Iodide (T3605, Invitrogen) was used.
For the results described here, more than 300 individual calvarial organ cultures were performed. […] No new cartilage was seen on control sections stained with either H&E or toluidine blue. […] With toluidine blue, bone stained orthochromatically (blue).
With respect to dose-response to either synthetic oleanane, 200 nM appeared to be optimal. Treatment with 50 nM triterpenoid yielded only marginal induction of chondrogenesis, while treatment with 500 nM synthetic oleanane gave somewhat variable results. Treatment with […] triterpenoid was invariably toxic to the organ cultures.

SOX9 [1] = test: Western blot in bone marrow stem cell cultures: SOX9; format: cell-based; details: 100 nM for 7 days, human BMSC cultures, not detectable in control
Experimental: as §1, §2

aggrecan = test: Western blot in bone marrow stem cell cultures: aggrecan; format: cell-based; details: 100 nM for 7 days, human BMSC cultures, not detectable in control
Experimental: as §1, §2

SOX9 [2] = test: quantitative RT-PCR of calvarial organ cultures: SOX9; format: cell-based; details: 7 days of culture, newborn mouse calvaria
Experimental: as §3
(§5) Quantitative RT-PCR (gRT-PCR). Detailed procedures for qRT-PCR are known in the art (Lee, et al. (2006) Biochem. Pharmacol. 72:332-43). In brief, 30 ng of RNA was reverse transcribed to cDNA using the random primers and Applied Biosystems' High Capacity cDNA Archive Kit in a 96-well format MASTERCYCLER Gradient from EPPENDORF. Subsequently, cDNA was amplified with ASSAYS-ON-DEMAND Products containing two gene specific primers and one TAQMAN MGB probe (6-FAM dye-labeled) using the TAQMAN Universal PCR Master Mix in an ABI PRISM 7000 Sequencing Detector (Applied Biosystems). All labeled primers were obtained from Applied Biosystems.
(§6) In addition to the histologic analysis of the calvarial cultures, mechanistic aspects of the action of both CDDO-EA and CDDO-Im were investigated in the calvaria. After 7 days of culture, RNA was isolated from the calvaria and quantitative RT-PCR analysis was performed for more than 15 different markers, including: SOX9, collagen IIα1, all three isoforms of TGF-β, BMPs 2 and 4, BMP receptor II, Smads 3, 4, 6, and 7, tissue inhibitors of metalloproteinases (TIMP-1 and TIMP-2), and matrix metalloproteinase-9 (MMP-9). […] The 50 nM dose was generally ineffective. In contrast, both triterpenoids were strong inhibitors of the expression of MMP-9; CDDO-EA (200 nM) caused almost 80% inhibition of the expression of this metalloproteinase, which is known to be involved in the degradation of cartilage (Shinoda, et al. (2008) J. Biol. Chem. 283:24632-9).

COL2A1 = test: quantitative RT-PCR of calvarial organ cultures: COL2A1; format: cell-based; details: 7 days of culture, newborn mouse calvaria
Experimental: as §3, §5, §6

[3] = test system: type II collagen (collagen IIα1); test: immunohistochemistry of calvarial organ cultures: type II collagen; format: cell-based, mouse; details: 200 nM, calvarial sections, not seen in control sections
Experimental: as §3
as §4, with “used. […]” for “used.”

| Structure (SMILES) | expression of chondrocyte marker collagen type 2 (Western blot) (collagen type 2) | induction of chondrogenesis in newborn mouse calvaria (histology) (newborn mouse calvaria) | formation of proteoglycans such as aggrecan (metachromatic toluidine blue staining) (newborn mouse calvaria) | expression of chondrocyte marker SOX9 (Western blot) (SOX9 [1]) | expression of chondrocyte marker aggrecan (Western blot) (aggrecan) | SOX9 expression (quantitative RT-PCR) (SOX9 [2]; 50 nM) | SOX9 expression (quantitative RT-PCR) (SOX9 [2]; 200 nM) | SOX9 expression (quantitative RT-PCR) (SOX9 [2]; 500 nM) | COL2A1 expression (quantitative RT-PCR) (COL2A1; 50 nM) | COL2A1 expression (quantitative RT-PCR) (COL2A1; 200 nM) | COL2A1 expression (quantitative RT-PCR) (COL2A1; 500 nM) | formation of type II collagen (collagen IIα1), immunohistochemistry [3] |
| --- | --- | --- | --- | --- | --- | --- | --- | --- | --- | --- | --- | --- |
| CCNC(=O)[C@]12CCC(C)(C)C[C@H]1[C@H]1C(=O)C=C3[C@@]4(C)C=C(C#N)C(=O)C(C)(C)[C@@H]4CC[C@@]3(C)[C@]1(C)CC2 [CDDO-EA] | induced expression | marked ability to induce chondrogenesis | induce the formation of proteoglycans | induced expression | induced expression | 1.64 ± 0.17 | 2.62 ± 0.33 | 3.12 ± 0.38 | 4.12 ± 1.78 | 5.45 ± 1.13 | 3.18 ± 0.71 | induced the formation of type II collagen |
| CC1(C)CC[C@]2(C(=O)n3ccnc3)CC[C@]3(C)[C@H](C(=O)C=C4[C@@]5(C)C=C(C#N)C(=O)C(C)(C)[C@@H]5CC[C@]43C)[C@@H]2C1 [CDDO-Im, 1-(2-cyano-3,12-dioxooleana-1,9(11)-dien-28-oyl) imidazole] | induced expression | marked ability to induce chondrogenesis | induce the formation of proteoglycans | induced expression | induced expression | 1.26 ± 0.08 | 1.33 ± 0.05 | 1.83 ± 0.13 | 1.45 ± 0.09 | 1.32 ± 0.23 | 1.72 ± 0.39 | induced the formation of type II collagen |
